Test system: five microorganisms tested (three bacterium and two fungal strains)
Experiment: Biocidal efficacy across the microorganisms tested
Format: cell-based
Details: aqueous buffered borate solution
Description: Accordingly, a composition containing as little as 75 ppm of S-1218 and 50 ppm of L-1010P is shown to have very strong biocidal activity against all five microorganisms.

Substance	biocidal efficacy (in words)
stearyl dimoniumhydropropyl decylglucoside	relatively high increase in biocidal efficacy
stearyl dimoniumhydropropyl laurylglucoside	relatively high increase in biocidal efficacy
